# From US20060211072A1, “Process, composition and kit for providing a stable whole blood calibrator/control” (Streck, Inc., priority 2005, published 2006)
# Assays:
# [1] = tested on: glycolysis in whole blood; test: YSI glucose concentration over time in whole blood specimens with D,L glyceraldehyde added; format: cell-based
# Experimental: FIG. 4 illustrates the YSI glucose concentration (mg/dL) of blood specimens containing EDTA at various final concentrations of a mixture of D,L glyceraldehydes at 0.0, 1.0, 5.0, 10.0 and 20.0 mM, obtained over 4 weeks of real time testing at about 2° C. to about 10° C.;
# FIG. 5 illustrates the YSI 2300 (reference analyzer) glucose concentration (mg/dL) of blood specimens treated at various concentrations of D,L glyceraldehyde over 3 weeks at about 2° C. to about 10° C., wherein the control is an untreated blood sample;
# In one method, a sample containing a cellular component, (i.e. RBCs, WBCs) is collected into a microfuge or vacuum tube, e.g. […]®, (such as supplied by Becton, Dickinson and Company, Franklin Lakes, N.J.). The initial concentration of glucose in the sample can be 50 […].
# The vacuum tube may contain any appropriate anticoagulant agent known to one of ordinary skill, including oxalate, EDTA, citrate, heparin or combination thereof, to form a suspension. If used, the anticoagulant may be added together simultaneously, or sequentially, to the sample.
# The resulting suspension is incubated at about 2° C. to about 30° C. and allowed to undergo glycolysis until the glucose level is less than about 20 mg/dL. […]
# [2] = tested on: glycolysis in red blood cells; test: YSI glucose recovery of red blood cells treated with glyceraldehyde, washed and recombined with plasma and glucose; format: cell-based; conditions: RBCs treated with 20, 35 and 50 mM for 72 hours at 2-10 C; after 34 days (FIG. 6)
# Experimental: FIG. 6 illustrates the YSI 2300 (reference analyzer) glucose concentration (mg/dL) of blood specimens at various concentrations of D,L glyceraldehyde respectively over 4 weeks at about 2° C. to about 10° C., wherein the control is untreated blood sample. Red blood cells were treated, washed and recombined with plasma and glucose.
# RBC Treatment w/ Glyceraldehyde & Subsequent Removal
# • 1) Employ fresh whole blood collected in standard anticoagulant (i.e. EDTA, heparin, sodium citrate) from a healthy adult population. Alternative blood sources may include bovine, avian, porcine, equine, goat, or alligator. • 2) Allow sufficient time for the natural enzymatic breakdown of glucose to occur (i.e. glycolysis). Deplete glucose concentration to less than about 20 mg/dl. Preferred storage at 2°-30° C. • 3) Separate RBC cellular component from plasma fraction via gravity settling and or centrifugation. If desired, the removed plasma fraction may be retained for reintroduction. • 4) Wash RBC cellular component with isotonic phosphate buffered saline solution (3×). Exchange diluent via centrifugation is preferred (15 minutes @ 1500 rpm (650×g). • 5) Adjust RBC concentration to approximately 4.0×10^6/mm^3±0.25×10^6/mm^3. […]
# [3] = tested on: glycolysis in whole blood; conditions: final concentration about 0.9 to 20 mM in blood sample; testing within 16 hours; cited from earlier work
Compound,"YSI glucose concentration loss ([1]; 20.0 mM D,L glyceraldehyde in EDTA, at 4 weeks, about 2-10 C (FIG. 4))","YSI glucose concentration loss ([1]; 30.0 mM D,L glyceraldehyde in EDTA, glucose burned down then added back, at 3 weeks, about 2-10 C (FIG. 5))",loss in glucose recovery [2] [%],glucose loss [3]
"O=CC(O)CO (racemic) [D,L glyceraldehyde, 2,3-dihydroxypropanal]",less than 10%,less than 3.5%,< 5,–
"O=CC(O)CO (stereo not shown) [glyceraldehyde, 2,3-dihydroxypropanal]",–,–,–,negligible glucose loss
